PMC11557314 (Frontiers in Pharmacology, 2024)
Read-outs that look alike come from different tables or passages of the source. Where no end group is shown, it is not given here. [ ]: non-standard residue; d: D form. βAla = NCCC(=O)O

Assays:
hKOPr [1] = test: Biased factor calculation from GTPγS and PRESTO-Tango data; design: species or system human; details: G-protein vs β-arrestin, DynA as reference; below 1 = β-arrestin bias
Text: To perform biased factor analyses, we followed the step-by-step protocol described by [Nagi and Pineyro (2016)]. In short, curve fitting was used to calculate τ and Ka values for G-protein and β-arrestin pathway activation. Log(τ/Ka) ratios were subtracted by log(τ/Ka) of DynA as the reference to yield ΔLog(τ/Ka) values for each peptide. In a final step for each peptide, ΔLog (τ/Ka) values for G-protein pathway activation were subtracted from ΔLog(τ/Ka) values for β-arrestin pathway activation and vice versa to calculate ΔΔLog(τ/Ka). The biased factor is yielded by delogging ΔΔLog (τ/Ka).
To confidently identify a G-protein-biased peptide of interest, it is essential to keep in mind that the responses we collected through GTPγS and PRESTO-Tango assay are not solely determined by drug signaling properties but also by the way the cell and different assays “perceive” the generation of this response. These different “perceptions” of the pharmacological stimulus may themselves be responsible for an imbalance among signals from different pathways. To avoid this, and to be able to correctly estimate whether a peptide is indeed biased, we applied the method proposed by [Kenakin et al. (2012)], that is based on the operational method proposed by [Black and Leff (1983)]. This method takes into consideration receptor occupation by the agonist, communication of the pharmacological stimulus to the system, and the processing of the stimulus by the system that produces the response.

hDOPr [2] = biological target: T1, hDOPr (Homo sapiens, UniProt P41143); test: Competitive radio binding assay with [3H]-diprenorphine on hDOPr-CHO cell membranes
T1 sequence (P41143 whole entry): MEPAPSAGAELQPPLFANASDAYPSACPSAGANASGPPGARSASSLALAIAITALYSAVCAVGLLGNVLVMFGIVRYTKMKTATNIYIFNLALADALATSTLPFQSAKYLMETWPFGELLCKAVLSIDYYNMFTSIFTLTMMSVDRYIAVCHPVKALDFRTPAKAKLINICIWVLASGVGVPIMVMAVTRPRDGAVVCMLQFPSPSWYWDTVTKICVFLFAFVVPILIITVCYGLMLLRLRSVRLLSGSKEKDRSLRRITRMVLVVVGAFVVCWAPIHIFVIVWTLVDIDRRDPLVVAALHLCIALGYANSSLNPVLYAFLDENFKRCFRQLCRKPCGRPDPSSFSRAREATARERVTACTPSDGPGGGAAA

hKOPr [3] = biological target: T2, hKOPr (Homo sapiens, UniProt P41145); test: biochemical; details: for EC50: read-out: Potency at hKOPr EC50
T2 sequence (P41145 whole entry): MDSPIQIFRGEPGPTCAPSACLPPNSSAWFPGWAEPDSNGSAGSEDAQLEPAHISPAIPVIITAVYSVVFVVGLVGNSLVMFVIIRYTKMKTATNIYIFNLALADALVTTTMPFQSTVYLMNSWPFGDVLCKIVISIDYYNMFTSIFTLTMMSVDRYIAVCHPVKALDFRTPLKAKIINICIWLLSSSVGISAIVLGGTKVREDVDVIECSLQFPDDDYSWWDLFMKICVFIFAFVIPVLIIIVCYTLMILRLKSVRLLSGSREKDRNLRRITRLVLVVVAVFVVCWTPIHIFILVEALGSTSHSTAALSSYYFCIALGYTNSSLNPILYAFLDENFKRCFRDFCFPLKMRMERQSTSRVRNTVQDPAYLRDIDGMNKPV

hKOPr [4] = biological target: T2, hKOPr; test: cell-based; assay type: cell-based; details: HEK293, read-out: β-Arrestin recruitment, efficacy at hKOPr Emax
hDOPr [5] = biological target: T1, hDOPr; test: [35S]GTPγS functional assay on hDOPr-CHO cell membranes; assay type: biochemical
Method: CHO cells stably transfected with human KOPr, MOPr, and DOPr (hKOPr-CHO, hMOPr-CHO, and hDOPr-CHO, respectively) were provided by Prof. Liu-Chen (Temple University, Philadelphia, United States). The cells were grown in Gibco™ Dulbecco’s minimal essential medium (DMEM) for hKOPr-CHO or Gibco™ DMEM/F-12 for hMOPr and hDOPr. Both media were supplemented with 10% FBS (Gibco™), GlutaMAX (100 μg/mL; Gibco™), penicillin/streptomycin (100 μg/mL; Gibco™), and geneticin (G418, 400 μg/mL; Gibco™). HEK 293 cells were grown in high-glucose DMEM supplemented with 10% FBS (Gibco™), GlutaMAX (100 μg/mL; Gibco™), and penicillin/streptomycin (100 μg/mL; Gibco™). Cell cultures were maintained in a Heracell™ 150i CO2 incubator at 37°C and 5.0% CO2.
Functional assays were conducted on hKOPr-CHO, hMOPr-CHO, and hDOPr-CHO cell membranes (see above). The membranes were prepared in a buffer containing 20 mM HEPES, 10 μM GDP, cell membrane (10–30 μg), and 0.05 nM [^35S]GTPγS. The buffer containing the cell membranes was incubated with an increasing concentration of the test peptide diluted in 1 × HEPES, pH 7.4, in a total volume of 1 mL, for 60 min at 25°C. The peptide solutions were replaced by diluents for untreated controls. Non-specific binding was determined using unlabeled 10 μM GTPγS. Samples were rapidly washed three times with Tris-HCl and filtered through glass fiber filters (GF/B Whatman). The bound radioactivity was measured by liquid scintillation (Carl Roth GmbH, Karlsruhe, Germany) counting on a Packard 1600 TR Tri-Carb Beta counter (Canberra, Belgium).

hMOPr = hMOPr (Homo sapiens, UniProt P35372); test: Competitive radio binding assay with [3H]-DAMGO on hMOPr-CHO cell membranes; details: read-out: Ki hMOPr; [3H]-DAMGO 1 nM, 60 min 25°C; mean ± SEM
Sequence of hMOPr (P35372 whole entry): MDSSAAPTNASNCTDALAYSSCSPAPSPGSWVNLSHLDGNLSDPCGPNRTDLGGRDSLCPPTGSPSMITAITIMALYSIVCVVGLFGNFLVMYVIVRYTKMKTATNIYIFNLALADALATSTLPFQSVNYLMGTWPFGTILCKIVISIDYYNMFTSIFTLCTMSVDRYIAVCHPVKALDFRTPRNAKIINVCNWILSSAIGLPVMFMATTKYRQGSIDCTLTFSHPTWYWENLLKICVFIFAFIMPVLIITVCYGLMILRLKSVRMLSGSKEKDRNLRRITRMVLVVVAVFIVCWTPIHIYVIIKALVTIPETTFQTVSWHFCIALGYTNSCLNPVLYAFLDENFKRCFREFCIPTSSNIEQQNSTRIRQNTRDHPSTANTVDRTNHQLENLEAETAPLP

hKOPr [6] = biological target: T2, hKOPr; assay type: binding; details: for Ki: read-out: Ki hKOPr
hKOPr [7] = system: hKOPr; design: method as in Bedini et al., 2020; details: result in words; ref Bedini et al., 2020; cited from earlier work
[8] = read-out: Efficacy at hKOPr Emax
[9] = read-out: Ki hDOPr, [3H]-diprenorphine 1 nM, 60 min 25°C, mean ± SEM

CC(C)C[C@H](NC(=O)[C@H](Cc1ccccc1)NC(=O)CNC(=O)CNC(=O)[C@@H](N)Cc1ccc(O)cc1)C(=O)N[C@@H](CCCNC(=N)N)C(=O)N[C@@H](CCCNC(=N)N)C(=O)N[C@@H](CCC(N)=O)C(=O)N[C@@H](Cc1ccccc1)C(=O)N[C@@H](CCCCN)C(=O)N[C@H](C(=O)N[C@H](C(=O)N[C@H](C(=O)O)[C@@H](C)O)C(C)C)C(C)C [DynB_WT, dynorphin B, reference compound]
biased factor at hKOPr (hKOPr [1]): 0.8 ± 0.2
Ki (hDOPr [2]): 80.2 ± 6.4 nM
hKOPr % stim, stimulation of [35S]GTPγS binding (hKOPr [3]): 120 ± 1.5%
preference for hKOPr over hDOPr (GTPγS) (hKOPr [3]): 12 fold
preference for hKOPr over hMOPr (GTPγS) (hKOPr [3]): 6 fold
Emax (hKOPr [3]; [8]): 120 ± 1.5%
Emax (hKOPr [3]; read-out: Emax higher than DynA): 20%
Emax (hKOPr [4]): 111 ± 5.3%
EC50 (hDOPr [5]): 59.3 ± 6.7 nM
hDOPr % stim, stimulation of [35S]GTPγS binding (hDOPr [5]; Table 3, normalized to DynA, mean ± SEM): 104 ± 3.6%

FGGFLRRQFKVVT [DynB_Y1F]
Ki (hDOPr [2]; [9]): 1620 nM
Ki (hMOPr): 217 ± 13.5 nM
potency for hKOPr as compared to DynB (GTPγS) (hKOPr [3]): strongly reduced potency
Emax (hKOPr [3]; [8]): 110 ± 5.5%
EC50 (hKOPr [3]): 393 ± 47.3 nM
Selectivity DOPr/KOPr (hKOPr [6]): 44
Ki (hKOPr [6]): 37.3 nM

YGAFLRRHFKVVT [DynB_G3A/Q8H]
Ki (hDOPr [2]; [9]): 460 ± 44.2 nM
Ki (hMOPr): 41.9 ± 1.3 nM
agonist category at hKOPr (GTPγS) (hKOPr [3]): partial agonists
Emax (hKOPr [3]; [8]): 74.9 ± 1.6%
EC50 (hKOPr [3]): 6.77 ± 0.82 nM
Selectivity DOPr/KOPr (hKOPr [6]): 1,508
Selectivity MOPr/KOPr (hKOPr [6]): 137
Ki (hKOPr [6]): 0.3 nM

YGAFLRRQFAVVT [DynB_G3A/K10 A]
Ki (hDOPr [2]; [9]): 497 ± 105 nM
Ki (hMOPr): 90.4 ± 7.6 nM
Emax (hKOPr [3]; [8]): 84 ± 3.6%
EC50 (hKOPr [3]): 16.7 ± 2.45 nM
Selectivity DOPr/KOPr (hKOPr [6]): 317
Selectivity MOPr/KOPr (hKOPr [6]): 58
Ki (hKOPr [6]): 1.57 nM

YGAFLRRQFKVVT [DynB_G3A]
Ki (hDOPr [2]; [9]): 317 ± 34.1 nM
Ki (hMOPr): 82.3 ± 7.9 nM
Emax (hKOPr [3]; [8]): 83.4 ± 5.5%
EC50 (hKOPr [3]): 27.9 ± 8.72 nM
Selectivity DOPr/KOPr (hKOPr [6]): 149
Selectivity MOPr/KOPr (hKOPr [6]): 39
Ki (hKOPr [6]): 2.13 nM

YGAFSRRQFKVVT [DynB_G3A/L5S]
Ki (hDOPr [2]; [9]): 3790 nM
Ki (hMOPr): 98.3 ± 5.9 nM
decrease of potency compared to DynB_WT (hKOPr [3]): more than 20 fold
potency for hKOPr as compared to DynB (GTPγS) (hKOPr [3]): strongly reduced potency
Emax (hKOPr [3]; [8]): 92.5 ± 5.7%
EC50 (hKOPr [3]): 116 ± 11.2 nM
Selectivity DOPr/KOPr (hKOPr [6]): 2,195
Selectivity MOPr/KOPr (hKOPr [6]): 57
Ki (hKOPr [6]): 1.73 nM

YGGFLRRAFKVVT [DynB_Q8A]
Emax (hKOPr [3]; [8]): 125 ± 12.3%

YGGFLRRHFKVVT [DynB_Q8H]
Ki (hDOPr [2]; [9]): 106 ± 17.1 nM
Ki (hMOPr): 7.7 ± 1.4 nM
Emax (hKOPr [3]; [8]): 111.5 ± 0.9%
EC50 (hKOPr [3]): 2.25 ± 0.47 nM
Selectivity DOPr/KOPr (hKOPr [6]): 507
Selectivity MOPr/KOPr (hKOPr [6]): 36
Ki (hKOPr [6]): 0.21 nM

YGGFLRRQFAVVT [DynB_K10 A]
Emax (hKOPr [3]; [8]): 132 ± 3.9%

YGMFLRRHFKVVT [DynB_G3M/Q8H]
Ki (hDOPr [2]; [9]): 167 ± 19 nM
Ki (hMOPr): 97.1 ± 15.8 nM
agonist category at hKOPr (GTPγS) (hKOPr [3]): partial agonists
Emax (hKOPr [3]; [8]): 42.1 ± 1.3%
EC50 (hKOPr [3]): 5.43 ± 0.53 nM
Selectivity DOPr/KOPr (hKOPr [6]): 459
Selectivity MOPr/KOPr (hKOPr [6]): 268
Ki (hKOPr [6]): 0.36 nM

YGMFLRRQFKVVT [DynB_G3M]
Ki (hDOPr [2]; [9]): 85.3 ± 16.4 nM
Ki (hMOPr): 117 ± 6.9 nM
agonist category at hKOPr (GTPγS) (hKOPr [3]): partial agonists
Emax (hKOPr [3]; [8]): 54.5 ± 1.8%
EC50 (hKOPr [3]): 14.1 ± 4.17 nM
Selectivity DOPr/KOPr (hKOPr [6]): 141
Selectivity MOPr/KOPr (hKOPr [6]): 193
Ki (hKOPr [6]): 0.61 nM

YGMFSRRQFKVVT [DynB_G3M/L5S]
Ki (hDOPr [2]; [9]): 8080 nM
Ki (hMOPr): 290 ± 17.9 nM
agonist category at hKOPr (GTPγS) (hKOPr [3]): partial agonists
potency for hKOPr as compared to DynB (GTPγS) (hKOPr [3]): strongly reduced potency
Emax (hKOPr [3]; [8]): 52.6 ± 1.6%
EC50 (hKOPr [3]): 170 ± 23.7 nM
Selectivity DOPr/KOPr (hKOPr [6]): 1,115
Selectivity MOPr/KOPr (hKOPr [6]): 40
Ki (hKOPr [6]): 7.24 nM

cyclo(FG[βAla][dW]) [LOR17]
G-protein bias at the hKOPr (hKOPr [7]): strong G-protein bias
